Molecular target: T1, M4 receptor (Homo sapiens, UniProt P08173)
T1 construct: expressed in transfected cells; host or cells: CHO (M4-CHO cells)
T1 sequence (P08173 1-479): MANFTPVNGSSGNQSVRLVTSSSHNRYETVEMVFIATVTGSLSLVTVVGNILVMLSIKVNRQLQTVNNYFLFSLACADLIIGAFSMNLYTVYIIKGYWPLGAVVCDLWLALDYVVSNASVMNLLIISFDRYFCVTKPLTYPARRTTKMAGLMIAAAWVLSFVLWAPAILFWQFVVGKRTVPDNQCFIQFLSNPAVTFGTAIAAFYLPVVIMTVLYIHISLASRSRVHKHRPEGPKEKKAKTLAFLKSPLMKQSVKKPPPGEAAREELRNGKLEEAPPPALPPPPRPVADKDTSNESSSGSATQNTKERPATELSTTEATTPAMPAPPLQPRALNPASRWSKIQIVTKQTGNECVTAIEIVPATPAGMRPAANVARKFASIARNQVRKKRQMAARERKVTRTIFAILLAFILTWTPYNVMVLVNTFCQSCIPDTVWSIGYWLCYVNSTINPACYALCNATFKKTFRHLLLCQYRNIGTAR
Assay: PAM agonistic activity of compound on M4 receptor (FLIPR Calcium 6 assay in M4-CHO cells)
Type: cell-based
Conditions: with acetylcholine (Ach), final concentration 3 nM
Protocol: • 1). Cell plating: M4-CHO cells were digested, collected, and resuspended. After cell counting, the cell suspension was seeded into a 384-well cell plate at a density of: 1.2 × 10^4 cells/25 µL/well. The cell plate was then cultured in a 37°C, 5% CO2 incubator for about 16-20 h. • 2). Day 2: Assay Buffer was prepared according to the instructions of the FLIPR Calcium 6 Assay Kit. Component A (20×) was thawed to room temperature and diluted with the Assay Buffer to prepare a loading buffer (1×), which was stored at room temperature until use. • 3). The culture medium was removed from the cell plate. 40 µL of the loading buffer (1×) was quickly added to each well. The cell plate was then centrifuged and incubated at 37°C in the dark for 120 min. • 4). Working solutions of the positive control compound and the test compounds were prepared. An acetylcholine (Ach) agonist compound solution was prepared (final concentration: 3 nM). The PAM compound and the Ach agonist solution were mixed at a 1 : 1 ratio, and the mixture was transferred into a 384-well compound source plate at 20 µL per well. • 5). The cell plate, the compound source plate, and the pipette tips were placed into the corresponding positions within the FLIPR instrument. 10 µL of the diluted compound from step 4 was added into each experimental well using the FLIPR Tetra. Data was collected at the wavelength of 515 nm-575 nm. • 6). The signal values were plotted against the compound concentrations. Nonlinear regression analysis was performed using GraphPad Prism software for curve fitting and EC50 calculation.
The experimental results are shown in Table 1, where A represents EC50 < […]; B represents 100 nM ≤ EC50 < 500 nM, and C represents 500 nM ≤ EC50. Table 1. Agonistic activity of compounds on M4 receptor

Row | EC50 [nM] | SMILES
1 | < 100 | Cc1ccn(-c2cc(N3CC(CC(=O)N4Cc5nc(C6CCOCC6)cc(C)c5C4)C3)ccn2)n1 [Compound 98]
2 | < 100 | Cc1ccn(-c2cc(N3CC(CC(=O)N4Cc5c(C)cc(=O)n(C)c5C4)C3)ccn2)n1 [Compound 99]
3 | < 100 | Cc1cc(=O)n(C)c2c1CN(C(=O)CC1CN(c3ccnc(C(F)(F)F)c3)C1)C2 [Compound 100]
4 | < 100 | Cc1cc(C)c2c(n1)CN(C(=O)CC1CN(c3cnnc(-n4ccc(C)n4)c3)C1)C2 [Compound 102]
5 | < 100 | Cc1nc(C#N)c2c(n1)CN(C(=O)CC1CN(c3ccnc(OC4CC(F)(F)C4)c3)C1)C2 [Compound 107]
6 | < 100 | Cc1cc(-c2ccn(C)n2)nc2c1CN(C(=O)CC1CN(c3ccnc(C(F)(F)F)c3)C1)C2 [Compound 112]
7 | < 100 | Cc1cc(=O)n(C)c2c1CN(C(=O)CC1CN(c3ccnc(O[C@@H]4CCOC4)c3)C1)C2 [Compound 118]
8 | < 100 | Cc1cc(C)c2c(n1)CN(C(=O)CC1CN(c3ccnc(C(=O)c4cnn(C)c4)c3)C1)C2 [Compound 120]
9 | < 100 | Cc1ccn(-c2cc(N3CC(CC(=O)N4Cc5nc(-c6cnn(C)c6)nc(C)c5C4)C3)ccn2)n1 [Compound 123]
10 | < 100 | Cc1ncn(-c2cc(N3CC(CC(=O)N4Cc5c(C)cc(=O)n(C)c5C4)C3)ccn2)n1 [Compound 127]
11 | < 100 | Cc1cc(=O)n(C)c2c1CN(C(=O)CC1CN(c3ccc4c(c3)CCC4=O)C1)C2 [Compound 131]
12 | < 100 | Cc1ccn(-c2cc(N3CC(CC(=O)N4Cc5c(C)cc(=O)n(C)c5C4)C3)cnn2)n1 [Compound 133]
13 | < 100 | Cc1cc(C)c2c(n1)CN(C(=O)CC1CN(c3ccnc(-n4ccc(C(F)F)n4)c3)C1)C2 [Compound 134]
14 | < 100 | COc1nc(C)c2c(n1)CN(C(=O)CC1CN(c3ccnc(OC4CC(F)(F)C4)c3)C1)C2 [Compound 137]
15 | < 100 | Cc1cc(=O)n(C)c2c1CN(C(=O)CC1CN(c3ccnc(OC4CC4)c3)C1)C2 [Compound 138]
16 | < 100 | Cn1c2c(c(F)cc1=O)CN(C(=O)CC1CN(c3ccnc(OC4CC(F)(F)C4)c3)C1)C2 [Compound 141]
17 | < 100 | Cc1nc(-c2cnn(C)c2)nc2c1CN(C(=O)CC1CN(c3ccnc(OC4CC(F)(F)C4)c3)C1)C2 [Compound 143]
18 | < 100 | Cc1nc(-c2ccnn2C)nc2c1CN(C(=O)CC1CN(c3ccnc(OC4CC(F)(F)C4)c3)C1)C2 [Compound 144]
19 | < 100 | Cc1cc(-c2cnn(C)c2)nc2c1CN(C(=O)CC1CN(c3ccnc(OC4CC4)c3)C1)C2 [Compound 148]
20 | < 100 | Cc1cc(C)c2c(n1)CN(C(=O)CC1CN(c3cc(-n4ccc(F)n4)ncc3F)C1)C2 [Compound 149]
21 | < 100 | Cc1cc(=O)n(C)c2c1CN(C(=O)CC1CN(c3ccnc(-n4ccc(C(F)(F)F)n4)c3)C1)C2 [Compound 160]
22 | < 100 | Cc1ncn(-c2nc(C)c3c(n2)CN(C(=O)CC2CN(c4ccnc(OC5CC(F)(F)C5)c4)C2)C3)n1 [Compound 163]
23 | < 100 | C=C1CC(Oc2cc(N3CC(CC(=O)N4Cc5nc(-c6cnn(C)c6)cc(C)c5C4)C3)ccn2)C1 [Compound 166]
24 | < 100 | Cc1cc(-c2cnn(C)c2)nc2c1CN(C(=O)CC1CN(c3ccnc(OC4CCOC4)c3)C1)C2 (stereo not drawn) [Compound 169]
25 | < 100 | Cc1cc(-c2cnn(C)c2)nc2c1CN(C(=O)CC1CN(c3ccnc(Oc4cnn(C)c4)c3)C1)C2 [Compound 171]
26 | < 100 | Cc1c2c(n(C)c(=O)c1F)CN(C(=O)CC1CN(c3ccnc(OC4CC(F)(F)C4)c3)C1)C2 [Compound 175]
27 | < 100 | C=C1CC(Oc2cc(N3CC(CC(=O)N4Cc5c(C)cc(=O)n(C(F)F)c5C4)C3)ccn2)C1 [Compound 184]
28 | < 100 | Cc1cc(S(C)(=O)=O)nc2c1CN(C(=O)CC1CN(c3ccnc(OC4CC(F)(F)C4)c3)C1)C2 [Compound 188]
29 | < 100 | Cc1cc(C)c2c(n1)CN(C(=O)CC1CN(c3ccnc(Cn4cc(C(F)(F)F)cn4)c3)C1)C2 [Compound 189]
30 | < 100 | Cc1c2c(n(C(F)F)c(=O)c1F)CN(C(=O)CC1CN(c3ccnc(OC4CCOC4)c3)C1)C2 (stereo not drawn) [Compound 198]

More lines, now with the values behind:

Row | SMILES | EC50 [nM]
31 | Cc1cc(C)c2c(n1)CN(C(=O)CC1CN(c3ccnc(-c4ncnn4C)c3)C1)C2 [Compound 97] | < 100
32 | Cc1cc(=O)n(C)c2c1CN(C(=O)CC1CN(c3ccnc(OC4CC(F)(F)C4)c3)C1)C2 [Compound 101] | < 100
33 | Cc1cc(C#N)c(F)c2c1CN(C(=O)CC1CN(c3ccnc(OC4CC(F)(F)C4)c3)C1)C2 [Compound 103] | < 100
34 | Cc1cc(C)c2c(n1)CN(C(=O)CC1CN(c3ccnc(-n4cnnc4)c3)C1)C2 [Compound 108] | < 100
35 | Cc1cc(-c2cnn(C)c2)nc2c1CN(C(=O)CC1CN(c3ccnc(C(F)(F)F)c3)C1)C2 [Compound 109] | < 100
36 | Cc1nc(C#N)nc2c1CN(C(=O)CC1CN(c3ccnc(OC4CC(F)(F)C4)c3)C1)C2 [Compound 115] | < 100
37 | Cc1c2c(n(C)c(=O)c1Cl)CN(C(=O)CC1CN(c3ccnc(OC4CC(F)(F)C4)c3)C1)C2 [Compound 116] | < 100
38 | Cc1cc(=O)n(C)c2c1CN(C(=O)CC1CN(c3ccnc(O[C@H]4CCOC4)c3)C1)C2 [Compound 117] | < 100
39 | Cc1cc(=O)n(C)c2c1CN(C(=O)CC1CN(c3ccnc(-n4ccc(F)n4)c3)C1)C2 [Compound 119] | < 100
40 | C=C1CC(Oc2cc(N3CC(CC(=O)N4Cc5nc(C)cc(C)c5C4)C3)ccn2)C1 [Compound 121] | < 100
41 | Cc1cc(C2CCOC2)nc2c1CN(C(=O)CC1CN(c3ccnc(C(F)(F)F)c3)C1)C2 (stereo not drawn) [Compound 125] | < 100
42 | Cc1ncn(-c2cc(N3CC(CC(=O)N4Cc5nc(-c6cnn(C)c6)nc(C)c5C4)C3)ccn2)n1 [Compound 130] | < 100
43 | Cc1cc(=O)n(C)c2c1CN(C(=O)OC1CN(c3ccnc(OC4CC(F)(F)C4)c3)C1)C2 [Compound 139] | < 100
44 | Cc1ncn(-c2cc(N3CC(CC(=O)N4Cc5nc(-c6ccnn6C)nc(C)c5C4)C3)ccn2)n1 [Compound 146] | < 100
45 | Cc1ncn(-c2cc(N3CC(CC(=O)N4Cc5nc(-c6cnn(C(F)F)c6)cc(C)c5C4)C3)ccn2)n1 [Compound 150] | < 100
46 | Cc1cc(-c2ccnn2C)nc2c1CN(C(=O)CC1CN(c3ccnc(OC4CC(F)(F)C4)c3)C1)C2 [Compound 158] | < 100
47 | Cc1cc(-c2cnn(C(F)F)c2)nc2c1CN(C(=O)CC1CN(c3ccnc(C(F)(F)F)c3)C1)C2 [Compound 162] | < 100
48 | C=C1CC(Oc2cc(N3CC(CC(=O)N4Cc5c(C)cc(=O)n(C)c5C4)C3)ccn2)C1 [Compound 165] | < 100
49 | Cc1nc(-c2cnn(C)c2)nc2c1CN(C(=O)CC1CN(c3ccnc(OC4CCOC4)c3)C1)C2 (stereo not drawn) [Compound 168] | < 100
50 | Cc1cc(-c2cnn(C)c2)nc2c1CN(C(=O)CC1CN(c3ccnc(OC4CCOC4)c3)C1)C2 (stereo not drawn) [Compound 170] | < 100
51 | Cc1ncn(-c2cc(C)c3c(n2)CN(C(=O)CC2CN(c4ccnc(C(F)(F)F)c4)C2)C3)n1 [Compound 172] | < 100
52 | Cc1nc(-c2cnn(C(F)F)c2)nc2c1CN(C(=O)CC1CN(c3ccnc(C(F)(F)F)c3)C1)C2 [Compound 173] | < 100
53 | Cc1ncc(-c2nc(C)c3c(n2)CN(C(=O)CC2CN(c4ccnc(C(F)(F)F)c4)C2)C3)s1 [Compound 174] | < 100
54 | Cc1c2c(n(C)c(=O)c1F)CN(C(=O)CC1CN(c3ccnc(C(F)(F)F)c3)C1)C2 [Compound 176] | < 100
55 | Cc1c2c(n(C(F)F)c(=O)c1F)CN(C(=O)CC1CN(c3ccnc(OC4CC(F)(F)C4)c3)C1)C2 [Compound 177] | < 100
56 | Cc1c2c(n(C(F)F)c(=O)c1F)CN(C(=O)CC1CN(c3ccnc(C(F)(F)F)c3)C1)C2 [Compound 178] | < 100
57 | Cc1ccn(-c2cc(N3CC(CC(=O)N4Cc5c(C)cc(=O)n(C(F)F)c5C4)C3)ccn2)n1 [Compound 179] | < 100
58 | Cc1cc(=O)n(C(F)F)c2c1CN(C(=O)CC1CN(c3ccnc(OC4CCOC4)c3)C1)C2 (stereo not drawn) [Compound 180] | < 100
59 | Cc1cc(=O)n(C(F)F)c2c1CN(C(=O)CC1CN(c3ccnc(Oc4cnn(C)c4)c3)C1)C2 [Compound 182] | < 100
60 | Cc1c2c(n(C(F)F)c(=O)c1F)CN(C(=O)CC1CN(c3ccnc(OC4CC4)c3)C1)C2 [Compound 195] | < 100

— patent EP4733303A1, “MUSCARINIC M4 RECEPTOR AGONIST AND USE THEREOF” (Haisco Pharmaceutical Group Co., Ltd., priority 2023, dated 2024)
